Key:
[1] = test system: VEGF induced increases in intracellular calcium levels in HUVEC (human umbilical vein endothelial cells); experiment: VEGF Stimulated Ca++ Signal in vitro (FLIPR); type: cell-based; details: VEGF 5 ng/mL; for IC50: 0.01 to 10.0 μM
Method in brief: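 HUVEC loaded with Fluo-4 (45 min, 37° C.), washed, then pre-incubated 30 min with compound (10 μM single dose or 0.01–10.0 μM; 0.1% DMSO) before 5 ng/mL VEGF. Fluorescence at 516 nm read by FLIPR; IC50 from % inhibition of max-min VEGF response.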

[2] = target: T1, cytoplasmic domain of the human VEGF receptor (VEGFR-2) (Homo sapiens, UniProt P35968); experiment: KDR Assay; type: biochemical; details: His-VEGFR-2; 3.6 μM ATP
T1 construct: The cytoplasmic domain of the human VEGF receptor (VEGFR-2) was expressed as a Histidine-tagged fusion protein; Histidine tag
T1 sequence (P35968 786-1356): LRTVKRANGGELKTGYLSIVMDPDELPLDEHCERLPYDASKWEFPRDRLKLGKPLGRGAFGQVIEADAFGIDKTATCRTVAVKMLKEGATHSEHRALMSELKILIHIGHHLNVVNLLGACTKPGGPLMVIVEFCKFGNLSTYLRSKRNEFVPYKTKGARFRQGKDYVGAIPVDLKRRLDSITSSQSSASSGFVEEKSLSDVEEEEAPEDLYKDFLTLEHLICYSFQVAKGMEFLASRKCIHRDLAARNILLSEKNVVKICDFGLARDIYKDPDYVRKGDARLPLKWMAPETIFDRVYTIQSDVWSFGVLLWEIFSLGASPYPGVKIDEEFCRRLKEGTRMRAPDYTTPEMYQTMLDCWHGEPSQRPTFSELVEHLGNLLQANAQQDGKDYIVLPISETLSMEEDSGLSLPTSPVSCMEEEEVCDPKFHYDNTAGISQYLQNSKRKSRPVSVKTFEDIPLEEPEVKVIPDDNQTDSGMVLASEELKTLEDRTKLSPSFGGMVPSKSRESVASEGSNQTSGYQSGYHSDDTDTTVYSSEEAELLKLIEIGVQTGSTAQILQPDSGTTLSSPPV
Method in brief: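 His-tagged human VEGFR-2 cytoplasmic domain from baculovirus-infected insect cells, acting on poly-Glu-Tyr (4:1)-coated plates with 3.6 μM ATP in Hepes pH 7.4 with MgCl2/MnCl2 and 5% final DMSO, 10 min at 25 °C. Phosphotyrosine detected by peroxidase-conjugated antibody ELISA at 492 nm; IC50 from blank-subtracted OD versus concentration.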

[3] = test system: VEGF-induced EBD extravasation; experiment: VEGF-induced Dermal Extravasation in Guinea Pig (Miles Assay); type: in vivo
Protocol: VEGF-induced Dermal Extravasation in Guinea Pig (Miles Assay). Male Hartley guinea pigs (300-600 g) were anesthetized with isofluorane, sheared, and given a single dose of drug or the respective vehicle. The guinea pigs were dosed orally unless indicated otherwise in Table 3. Ten minutes prior to the end of drug treatment, guinea pigs were anesthetized with isofluorane, and 0.5% Evans blue dye (EBD) in PBS (13-15 mg/kg dose of EBD) was injected intravenously. After 5 minutes, triplicate intradermal injections of 100 ng rhVEGF165 in 100 μl PBS and of 100 μl PBS alone were administered on the flank. After 20 minutes, each animal was euthanized with Pentosol, and the skin containing the intradermal injection sites was removed for image analysis.
Using an analog video camera coupled to a PC, an image of each trans-illuminated skin sample was captured, and the integrated optical density of each injection site was measured using ImagePro 4. For each skin sample, the difference between the mean optical density of the VEGF sites and mean optical density of the PBS sites is the measure of VEGF-induced EBD extravasation in that animal. These measured values were averaged per study group to determine the mean VEGF-induced EBD extravasation for each experimental condition, and the group means were then compared to assess inhibition of VEGF-induced EBD extravasation in the drug-treated groups relative to the vehicle-treated controls.
To determine the dose required for 50% inhibition (ID50), the percent inhibition data was plotted as a function of oral dose, using the ‘best-fit’ analysis within MicroSoft Excel software. The ID50 value was verified visually by using the plotted data (horizontal line from 50% y value, at intersection with best-fit line drop vertical line to x axis (dose)).

| Structure (SMILES) | IC50 [2] | IC50 [1] | inhibition at 10 µM ([1]; Homo sapiens) | IC50 ([1]; Homo sapiens) | Miles Assay % inhibition ([3]; 75 mg/kg, PEG400, oral) | Miles Assay % inhibition ([3]; 75 mg/kg, corn oil, oral) | Miles Assay % inhibition ([3]; 40 mg/kg, corn oil, oral) |
| --- | --- | --- | --- | --- | --- | --- | --- |
| CN(C)c1ccc(NC=C2C(=O)Nc3ccccc32)cc1 [Example 156, 3-[(4-Dimethylamino-phenylamino)-methylene]-1,3-dihydro-indol-2-one] | 510 nM | 830 nM | 95.4% | ≤ 1000 nM | 100% | – | – |
| CN1CCN(c2ccc(NC=C3C(=O)Nc4ccccc43)cc2)CC1 [Example 157, 3-{[4-(4-Methyl-piperazin-1-yl)-phenylamino]-methylenel}-1,3-dihydro-indol-2-one] | 250 nM | – | 97.9% | – | 38% | – | – |
| O=C1Nc2ccccc2C1=CNc1ccc(OCCCCN2CCCC2)cc1 [Example 179, 3-{[4-(4-Pyrrolidin-1-yl-butoxy)-phenylamino]-methylene}-1,3-dihydro-indol-2-one] | 310 nM | 640 nM | 97.3% | ≤ 1000 nM | 65% | – | – |
| Cc1cccc2c1C(=CNc1ccc(N)cc1)C(=O)N2 [Example 181, 3-[(4-Amino-phenylamino)-methylene]-4-methyl-1,3-dihydro-indol-2-one] | 350 nM | – | 97.7% | – | 38% | – | – |
| O=C1Nc2ccccc2C1=CNc1ccc(OCCCCN2CCOCC2)cc1 [Example 206, 3-{[4-(4-Morpholin-4-yl-butoxy)-phenylamino]-methylene}-1,3-dihydro-indol-2-one] | 240 nM | 670 nM | 96.3% | ≤ 1000 nM | – | 74% | – |
| CCN(CC)CCCCOc1ccc(NC=C2C(=O)Nc3ccccc32)cc1 [Example 207, 3-{[4-(4-Diethylamino-butoxy)-phenylamino]-methylene}-1,3-dihydro-indol-2-one] | 240 nM | 510 nM | 98.6% | ≤ 1000 nM | – | 80% | – |
| CN1CCN(CCCCOc2ccc(NC=C3C(=O)Nc4ccccc43)cc2)CC1 [Example 208, 3-({4-[4-(4-Methyl-piperazin-1-yl)-butoxy]-phenylamino}-methylene)-1,3-dihydro-indol-2-one] | 260 nM | 530 nM | 99% | ≤ 1000 nM | – | 32% | – |
| Nc1cccc(NC=C2C(=O)Nc3ccccc32)c1 [Example 211, 3-[(3-Amino-phenylamino)-methylene]-1,3-dihydro-indo1-2-one] | 460 nM | 660 nM | 96.7% | ≤ 1000 nM | 38% | – | – |
| CCN(CC)CCCOc1ccc(NC=C2C(=O)Nc3ccccc32)cc1 [Example 214, 3-{[14-(3-Diethylamino-propoxy)-phenylamino]-methylene}-1,3-dihydro-indol-2-one] | 330 nM | – | 97.3% | – | 61% | 78% | – |
| O=C1Nc2ccccc2C1=CNc1ccc(OCCCN2CCOCC2)cc1 [Example 215, 3-{[4-(3-Morpholin-4-yl-propoxy)-phenylamino]-methylene}-1,3-dihydro-indol-2-one] | 340 nM | 670 nM | 96.7% | ≤ 1000 nM | 53% | – | – |
| O=C1Nc2ccccc2C1=CNc1ccc(OCCCN2CCCC2)cc1 [Example 216, 3-{[4-(3-Pyrrolidin-1-yl-propoxy)-phenylamino]-methylene}-1,3-dihydro-indol-2-one] | 340 nM | 570 nM | 95.3% | ≤ 1000 nM | 91% | – | – |
| O=C1Nc2cc(F)ccc2C1=CNc1ccc(OCCCCN2CCCCC2)cc1 [Example 247, 6-Fluoro-3-{[4-(4-piperidin-1-yl-butoxy)-phenylamino]-methylene}-1,3-dihydro-indol-2-one] | 200 nM | – | – | – | – | 45% | – |
| O=C1Nc2ccccc2C1=CNc1ccc(OCCCN2CCC(F)C2)cc1 (stereo not shown) [Example 305, 3-({4-[3-(3-Fluoro-pyrrolidin-1-yl)-propoxy]-phenylamino}-methylene)-1,3-dihydro-indol-2-one] | 310 nM | 550 nM | – | ≤ 1000 nM | – | – | – |
| O=C1Nc2ccc(Cl)cc2C1=CNc1ccc(CCN2CCOCC2)cc1 [Example 307, 5-Chloro-3-{[4-(2-morpholin-4-yl-ethyl)-phenylamino]-methylene}-1,3-dihydro-indol-2-one] | 270 nM | 650 nM | – | ≤ 1000 nM | – | – | – |
| O=C1Nc2cccc(F)c2C1=CNc1ccc(CCN2CCOCC2)cc1 [Example 309, 4-Fluoro-3-{[4-(2-morpholin-4-yl-ethyl)-phenylamino]-methylene}-1,3-dihydro-indol-2-one] | 230 nM | 680 nM | – | ≤ 1000 nM | – | – | – |

Continued by falling IC50 [2], values first:

| IC50 [2] | Structure (SMILES) | IC50 [1] | inhibition at 10 µM ([1]; Homo sapiens) | IC50 ([1]; Homo sapiens) | Miles Assay % inhibition ([3]; 75 mg/kg, PEG400, oral) | Miles Assay % inhibition ([3]; 75 mg/kg, corn oil, oral) | Miles Assay % inhibition ([3]; 40 mg/kg, corn oil, oral) |
| --- | --- | --- | --- | --- | --- | --- | --- |
| 220 nM | CC1CN(c2ccc(NC=C3C(=O)Nc4ccc(F)cc43)cc2)CC(C)O1 (stereo not shown) [Example 219, 3-{[4-(2,6-Dimethyl-morpholin-4-yl)-phenylamino]-methylene}-5-fluoro-1,3-dihydro-indol-2-one] | 620 nM | 97.4% | ≤ 1000 nM | 28% | – | – |
| 190 nM | O=C1Nc2ccc(F)cc2C1=CNc1ccc(N2CCOCC2)cc1 [Example 167, 5-Fluoro-3-[(4-morpholin-4-yl-phenylamino)-methylene]-1,3-dihydro-indol-2-one] | – | 95.7% | – | 31% | – | – |
| 170 nM | CCN(CC)CCOc1ccc(NC=C2C(=O)Nc3cc(F)ccc32)cc1 [Example 266, 3-{[4-(2-Diethylamino-ethoxy)-phenylamino]-methylene}-6-fluoro-1,3-dihydro-indol-2-one] | – | – | – | – | – | 82% |
| 150 nM | CCN(CC)CCCOc1ccc(NC=C2C(=O)Nc3cc(F)ccc32)cc1F [Example 250, 3-{[4-(3-Diethylamino-propoxy)-3-fluoro-phenylamino]-methylene}-6-fluoro-1,3-dihydro-indol-2-one] | – | – | – | – | 62% | – |
| 130 nM | O=C1Nc2cc(F)ccc2C1=CNc1ccc(OCCN2CCCC2)cc1 [Example 271, 6-Fluoro-3-{[4-(2-pyrrolidin-1-yl-ethoxy)-phenylamino]-methylene}-1,3-dihydro-indol-2-one] | – | – | – | – | – | 98% |
| 110 nM | CC1CN(c2ccc(NC=C3C(=O)Nc4cc(F)ccc43)cc2)CC(C)O1 (stereo not shown) [Example 229, 3-{[4-(2,6-Dimethyl-morpholin-4-yl)-phenylamino]-methylene}-6-fluoro-1,3-dihydro-indol-2-one] | – | 97.2% | – | 97% | – | – |
| 110 nM | O=C1Nc2cc(F)ccc2C1=CNc1ccc(NCCN2CCOCC2)cc1 [Example 243, 6-Fluoro-3-{[4-(2-morpholin-4-yl-ethylamino)-phenylamino]-methylene}-1,3-dihydro-indol-2-one] | – | 95.6% | – | – | 100% | – |
| 70 nM | CCN(CC)CCCOc1ccc(NC=C2C(=O)Nc3cccc(C)c32)cc1F [Example 249, 3-{[4-(3-Diethylamino-propoxy)-3-fluoro-phenylamino]-methylene}-4-methyl-1,3-dihydro-indol-2-one] | – | – | – | – | 29% | – |
| 60 nM | Cc1cccc2c1C(=CNc1ccc(N3CC(C)OC(C)C3)cc1)C(=O)N2 (stereo not shown) [Example 220, 3-{[4-(2,6-Dimethyl-morpholin-4-yl)-phenylamino]-methylene}-4-methyl-1,3-dihydro-indol-2-one] | – | 94.9% | – | 39% | – | – |
| 60 nM | Cc1cccc2c1C(=CNc1ccc(OCCCN3CCCCC3)cc1)C(=O)N2 [Example 238, 4-Methyl-3-{[4-(3-piperidin-1-yl-propoxy)-phenylamino]-methylene}-1,3-dihydro-indol-2-one] | 780 nM | 98.4% | ≤ 1000 nM | – | 60% | – |

From patent US20030225152A1, “3-(Arylamino)methylene-1, 3-dihydro-2h-indol-2-ones as kinase inhibitors” (priority 2001, published 2003)
